According to publication PMC4091765 (Methods in molecular biology (Clifton, N.J.), 2013):
Blank lines part the entries; values can stand above or below the compound they belong to.

Assays:
PDE9A = PDE9A (Homo sapiens, UniProt O76083); experiment: PDE assay using isothermal titration calorimetry; details: ITC; for Ki: compound as inhibitor of PDE9; for Km: compound as substrate
PDE8A = PDE8A (Homo sapiens, UniProt O60658); experiment: PDE assay using isothermal titration calorimetry; details: ITC, compound as substrate; n.h. = not hydrolyzed
PDE8A, sequence (O60658 whole entry, species assumed): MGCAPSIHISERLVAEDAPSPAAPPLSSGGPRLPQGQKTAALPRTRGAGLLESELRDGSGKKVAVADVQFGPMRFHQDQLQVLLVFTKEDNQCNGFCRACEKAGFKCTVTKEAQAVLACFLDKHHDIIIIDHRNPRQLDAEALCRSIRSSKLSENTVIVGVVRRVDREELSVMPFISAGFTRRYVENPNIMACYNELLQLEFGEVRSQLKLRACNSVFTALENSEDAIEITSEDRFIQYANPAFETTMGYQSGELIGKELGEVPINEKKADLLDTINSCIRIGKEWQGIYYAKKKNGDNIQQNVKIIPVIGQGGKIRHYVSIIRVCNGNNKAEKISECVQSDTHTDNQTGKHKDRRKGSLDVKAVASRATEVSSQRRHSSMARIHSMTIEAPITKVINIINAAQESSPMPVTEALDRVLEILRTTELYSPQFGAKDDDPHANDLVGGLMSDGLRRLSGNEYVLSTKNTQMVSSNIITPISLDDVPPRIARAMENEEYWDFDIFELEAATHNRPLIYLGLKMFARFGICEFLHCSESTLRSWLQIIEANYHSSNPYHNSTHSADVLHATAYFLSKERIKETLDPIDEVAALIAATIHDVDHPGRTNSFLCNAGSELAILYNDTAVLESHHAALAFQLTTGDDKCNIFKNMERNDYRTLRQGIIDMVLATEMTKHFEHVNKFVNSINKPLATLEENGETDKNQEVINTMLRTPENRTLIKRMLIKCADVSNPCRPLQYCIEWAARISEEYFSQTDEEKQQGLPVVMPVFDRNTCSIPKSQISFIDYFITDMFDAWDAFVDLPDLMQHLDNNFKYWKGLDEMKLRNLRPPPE

PDE5 = details: ITC, cited from earlier work
PDEs = experiment: ITC PDE assays, summary over the PDE panel; details: result in words
PDE1C = details: ITC, compound as substrate; cited from earlier work
PDE4D = details: ITC, compound as substrate; n.h. = not hydrolyzed; cited from earlier work
PDE10 = details: ITC, compound as substrate; cited from earlier work
PDE1A = details: ITC, compound as substrate; cited from earlier work
PDE2A = details: ITC, compound as substrate; cited from earlier work
PDE1B = details: ITC, compound as substrate; cited from earlier work
PDE6 = details: ITC, compound as substrate, cited from earlier work

PDE9A, sequence (O76083 whole entry, species assumed): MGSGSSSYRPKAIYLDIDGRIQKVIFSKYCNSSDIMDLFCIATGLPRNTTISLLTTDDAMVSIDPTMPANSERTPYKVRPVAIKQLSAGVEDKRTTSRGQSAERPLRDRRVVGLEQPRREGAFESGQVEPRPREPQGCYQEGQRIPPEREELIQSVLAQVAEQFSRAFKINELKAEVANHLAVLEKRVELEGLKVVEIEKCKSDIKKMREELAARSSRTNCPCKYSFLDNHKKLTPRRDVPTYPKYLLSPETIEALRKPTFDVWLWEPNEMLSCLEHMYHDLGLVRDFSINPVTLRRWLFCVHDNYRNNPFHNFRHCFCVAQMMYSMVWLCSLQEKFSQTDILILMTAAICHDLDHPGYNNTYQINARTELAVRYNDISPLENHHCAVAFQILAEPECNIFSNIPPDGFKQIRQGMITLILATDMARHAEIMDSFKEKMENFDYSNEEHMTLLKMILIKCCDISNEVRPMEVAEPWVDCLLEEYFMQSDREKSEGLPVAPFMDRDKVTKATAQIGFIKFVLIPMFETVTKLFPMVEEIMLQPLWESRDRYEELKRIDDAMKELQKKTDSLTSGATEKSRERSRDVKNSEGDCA

Structure (SMILES): Nc1nc2c(nc(Sc3ccc(Cl)cc3)n2C2O[C@@H]3COP(=O)(O)O[C@H]3[C@H]2O)c(=O)[nH]1 (stereo in doubt) [8-pCPT-cGMP]
Ki (PDE9A): 1290 nM

Structure (SMILES): CO[C@@H]1[C@@H]2OP(=O)(O)OC[C@H]2O[C@H]1n1c(Sc2ccc(Cl)cc2)nc2c(N)ncnc21 [8-pCPT-2-0-Me cAMP]
substrate property for PDE5 (PDE5; result in words): rather good substrate for PDE5

Structure (SMILES): COC1C2OP(O)(=S)OCC2OC1n1c(Sc2ccc(Cl)cc2)nc2c(N)ncnc21 (stereo not shown) [Sp-8-pCPT-2-0-Me-cAMPS]
substrate property for PDEs (PDEs; any PDE of the panel): not a substrate for any PDE
inhibition of PDEs (PDEs; several PDEs of the panel): quite a good inhibitor of several of them

More lines, main results first:

Km (PDE8A): 0.55 µM
Ki (PDE9A): 770 nM
Structure (SMILES): Nc1nc2c(nc(Br)n2[C@@H]2O[C@@H]3COP(=O)(O)O[C@H]3[C@H]2O)c(=O)[nH]1 [8-Br-cGMP]

Km (PDE9A): 5.99 µM
Structure (SMILES): Nc1ncnc2c1nc(Br)n2[C@@H]1O[C@@H]2COP(=O)(O)O[C@H]2[C@H]1O [8Br-cAMP]

Km (PDE8A): n.h.
Vmax (PDE8A): n.h.
Km (PDE9A): 0.2 µM
Structure (SMILES): Nc1nc2c(ncn2[C@@H]2O[C@@H]3COP(=O)(O)O[C@H]3[C@H]2O)c(=O)[nH]1 [cGMP]
Km (PDE1C): 4.6 µM
Vmax (PDE1C): 1.4 ± 1.0 µM/min/mg
Km (PDE5; compound as substrate): 2 µM
Km (PDE4D): n.h.
Vmax (PDE4D): n.h.
Km (PDE10): 1.1 µM
Vmax (PDE10): 1.6 ± 0.11 µM/min/mg
Km (PDE1A): 8.2 µM
Vmax (PDE1A): 20 ± 1.0 µM/min/mg
Km (PDE2A): 31 µM
Vmax (PDE2A): 176 ± 31 µM/min/mg
Km (PDE1B): 5.4 µM
Vmax (PDE1B): 2.6 ± 0.7 µM/min/mg
Vmax (PDE6; Vmax normalized, cGMP as substrate = 1): 1.0 +/− 1.1
Km (PDE6): 10 µM
